Experimental findings from US20250179028A1, “ACRYLAMIDE COMPOUNDS” (NRG THERAPEUTICS LTD, priority 2022, published 2025) are described below.

≈ marks a conversion by molar mass, not a printed value.

For one data set, the target named is CYP2D6 (Homo sapiens (Human), UniProt P10635). The data set can be described thus: Cytochrome P450 CYP2D6 inhibition in human liver microsomes. Type of data set: in vitro ADME. Particulars: probe dextromethorphan 2 µM (dextrorphan formation); 1 uM test compound, human liver microsomes; average value from two experiments; negative values = no effective inhibition. The essentials:
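Human liver microsomes (0.2 mg/mL) with 2 μM dextromethorphan in 100 mM PBS, test compound at 1 μM or 0.1-30 μM, 15 min preincubation then NADPH-started reaction for 20 min at 37° C, in duplicate. Dextrorphan formation by UPLC-MS/MS; IC50 from % decrease versus uninhibited control.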
A general note: Liver microsomes are a subcellular fraction often used to study metabolism.

Data set [1] can be described thus: Microsomal clearance assay. Type of data set: in vitro ADME. Particulars: rat liver microsomes; average value from two experiments. How it is done:
The microsomal stability of test compounds was evaluated using rat liver microsomes (BiolVT) with and without the cofactors nicotinamide adenine dinucleotide phosphate (NADPH) and undine-diphosphate-glucuronic acid (UDPGA). Reactions were performed in a final volume of 250 μl pre-warmed (37° C.) 100 mM phosphate buffer containing 5 mM MgCl2, 0.025 mg/ml alamethicin, and 0.5 mg/ml rat liver microsomes. NADPH and UDPGA were included at 1 mM and 2 mM respectively, where appropriate. Reactions were started with the addition of 1 μM (final concentration) test compound. Verapamil was used as the positive control. Solutions were incubated in a water bath at 37° C. and aliquots collected at 0.5, 5, 15, 30 and 60 min. Reactions were stopped by the addition of 5 volumes of cold acetonitrile with internal standards (200 nM caffeine and 100 nM tolbutamide). Samples were centrifuged at 3220 g for 40 min. An aliquot of supernatant was diluted 1:1 In ultra-pure H2O, then used for LC-MS/MS analysis. Peak areas were determined from extracted ion chromatograms. The slope value, k, was determined by linear regression of the natural logarithm of the remaining percentage of the parent drug vs. incubation time curve. The in vitro half-life (in vitro t½) was determined from the slope value: in vitro t½=0.693/k. Conversion of the in vitro t½ (min) into the in vitro intrinsic clearance (in vitro CLint, in μL/min/mg protein) was done using the following equation (mean of duplicate determinations): […]

A short description of data set [2]: PBS and FaSSIF solubility. In kind it is physicochemical. Particulars: aqueous buffer, kinetic from dmso stock; PBS pH 7.4, 2 hr at 25° C.; read-out: Solubility PBS (pH 7.4). The essentials: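 Solubility was measured from 10 mM DMSO stocks diluted into FaSSIF or PBS pH 7.4, in duplicate, then shaken at 1100 rpm for 2 hr at 25 °C. Filtrates were quantified by LC-MS/MS against an internal standard and a known-concentration standard.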

For a further data set, the system named is mPTP. The data set can be described thus: mPTP activity (Ca2+ retention) assay in isolated rat liver mitochondria. Type of data set: biochemical. Particulars: isolated rat liver mitochondria; average value from multiple experiments (n ≥ 2). The essentials: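 Freshly isolated female Sprague Dawley rat liver mitochondria were energised with succinate and rotenone in pH 7.4 buffer with Fluo5N, then pre-incubated 10 min at RT with compound (30 μM to 1 nM final) before a 75 μM CaCl2 bolus. The IC50 used 10-min fluorescence, normalised to DMSO and 5 μM cyclosporin A.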

Sequence of CYP2D6 (P10635 whole entry): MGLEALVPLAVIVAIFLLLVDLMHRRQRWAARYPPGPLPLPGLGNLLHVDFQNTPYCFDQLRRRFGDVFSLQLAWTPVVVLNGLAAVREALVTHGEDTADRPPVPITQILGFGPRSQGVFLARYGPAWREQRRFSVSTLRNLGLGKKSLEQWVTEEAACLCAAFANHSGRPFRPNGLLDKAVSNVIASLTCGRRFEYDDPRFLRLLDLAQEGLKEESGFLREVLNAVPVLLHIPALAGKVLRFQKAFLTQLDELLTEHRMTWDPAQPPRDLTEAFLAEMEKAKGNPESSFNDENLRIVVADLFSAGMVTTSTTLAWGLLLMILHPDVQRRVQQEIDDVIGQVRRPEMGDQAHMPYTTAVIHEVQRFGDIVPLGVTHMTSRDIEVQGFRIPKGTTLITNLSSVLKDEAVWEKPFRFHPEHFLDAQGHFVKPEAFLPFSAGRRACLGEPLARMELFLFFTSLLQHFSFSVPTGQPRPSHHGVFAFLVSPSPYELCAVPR

For orientation: inhibition means the drop in the measured response relative to a control, in per cent. By microsomal CLint is commonly meant the capacity of the preparation to metabolise the compound, expressed as a volume cleared per time. Low readings indicate slow turnover, high ones rapid turnover. One may read the solubility as the dissolved amount per volume that the medium holds. As for `Cc1c(F)cccc1NC(=O)/C=C/c1ccc2nn[nH]c2c1` [Example 1, (E)-3-(1H-benzo[d][1,2,3]triazol-6-yl)-N-(3-fluoro-2-methylphenyl)acrylamide], the inhibition at 20 min, 1 µM on CYP2D6 is -2.11%. For the same compound, the microsomal CLint at 1 µM in data set [1] is 106 µL/min/mg. Besides, the solubility at 2 h in data set [2] came to 22.2 µM (≈ 6.58 µg/mL). In addition, the “mPTP Rat liver pIC50” value in the data set on mPTP was found to be 7.3.

With `Cc1c(F)cccc1NC(=O)/C=C/c1cc(F)c2c(c1)NC(=O)C2` [Example 18, (E)-N-(3-fluoro-2-methylphenyl)-3-(4-fluoro-2-oxoindolin-6-yl)acrylamide], at CYP2D6, the inhibition at 20 min, 1 µM was 1.2%. The same compound registered a microsomal CLint at 1 µM in data set [1] of 23 µL/min/mg. Also, the solubility at 2 h in data set [2] was 1.11 µM (≈ 0.364 µg/mL). Moreover, in the data set with mPTP, the “mPTP Rat liver pIC50” value is 6.0.

With `CC1Cc2ccccc2C1NC(=O)/C=C/c1ccc2c(c1)NC(=O)C2` (stereo not drawn) [Example 21, (E)-N-(2-methyl-2,3-dihydro-1H-inden-1-yl)-3-(2-oxoindolin-6-yl)acrylamide], the inhibition at 20 min, 1 µM against CYP2D6 was 0.91%. The intrinsic clearance (microsomal CLint) at 1 µM in data set [1] worked out at 38 µL/min/mg. In data set [2], the solubility at 2 h amounted to 26 µM (≈ 8.64 µg/mL). Further, the “mPTP Rat liver pIC50” value in the data set with mPTP was 6.1.
